Values of other authors, collected in patent US6830897B2, “High throughput screen for reducing drug candidate attrition” (Pfizer Inc., priority 2000, dated 2004).

Conditions: toxicities linked to formation of reactive metabolites; literature reference in brackets

SMILES | Toxicity (Ref.)
COc1ccc(O)cc1 [4-hydroxyanisole] | Hepato- toxicity (15)
CC(C)c1ccc(O)cc1 [4-isopropylphenol] | Circulatory collapse, death (16)
COc1ccc2c(c1)c(CC(=O)O)c(C)n2C(=O)c1ccc(Cl)cc1 [Indomethacin] | Neutrophil toxicity (14)
O=C1NC(=O)C(c2ccccc2)(c2ccccc2)N1 [Phenytoin] | Hepato- toxicity (18)
CCCC(CCC)C(=O)O [Valproic acid] | Hepato- toxicity (17)
Cc1cccc(O)c1 [m-Cresol] | Circulatory collapse, death (16)
CN1CCN(C2=Nc3cc(Cl)ccc3Nc3ccccc32)CC1 [Clozapine] | Neutrophil Cyto-toxicity (12)
CC(=O)Nc1ccc(O)cc1 [Acetaminophen] | Hepato- toxicity (11)
NC(=O)N1c2ccccc2C=Cc2ccccc21 [Carbamazepine] | Hyper- sensitivity (13)
